Experimental findings from patent US7067486B2, “Acetylcholinesterase-derived peptides and uses thereof” (priority 1999, dated 2006) are described below.

Marks after values point to notes of the source that are not given here.

Holding throughout (assay type): cell-based, human
For assay [1], the system named is CD34^+ cells. The experiment in a line: Viable cell expansion in CD34+ liquid cultures (trypan blue exclusion). The note with it: day 14; seeded at 50,000 cells/well; ARP 2 nM, cortisol 1.2 μM, ASP 2 nM, SCF 50 ng/ml, AS1 20 pM, PBAN 2 nM. From the text: Cell Source: UCB was collected, following informed consent of the parents and with the approval of the Sourasky Medical Center Ethics Committee, as previously described [Grisaru et al. (1999a) Am. J. Obstet. Gynecol, 180, 1240–1243]. Following 1:1 (v/v) dilution in Iscove's modified Dulbecco medium (IMDM, Beit Haemek, Israel), mononuclear cells were separated using 3% gelatin (Difco, Detroit, Mich.) and Ficoll-Hypaque gradients (<1.077 g/ml; Pharmacia, Uppsala, Sweden) [Pick et al. (1998) Br. J. Haematol. 103, 639–50]. CD34^+ cells were enriched using CD34 immunoglobulin-coated magnetic beads (CD34 progenitor cell selection system, Dynal, Norway).CD34^+ cells analysis was performed by flow cytometry (Becton Dickinson Immunocytochemistry System Inc., San Jose, Calif.), using CD34-PE (Becton Dickinson Immunocytometry System, Inc.) and CD45-FITC (Dako, Glostrup, Denmark) monoclonal antibodies. […] Liquid Cultures: UCB CD34^+ cells were set for liquid cultures at a concentration of 10^5/mL in IMDM, containing 10% autologous plasma, 2 mM L-glutamine (Sigma Chemical Co., St Louis, Mo.), penicillin ([…]), streptomycin ([…]), amphotericin B (2×10^−5 M) (Sigma Chemical Co.), and heparin (20 IU/mL, Gibco, Grand Island, N.Y.), all in a fully humidified atmosphere at 37° C. and 5% CO2. The following elements were added where noted: • 1. Hematopoietic growth factors: Interleukin 3 (IL3, 5 ng/mL, Immunex, Seattle, Wash.), interleukin 6 (IL6, 50 ng/mL, R&D Systems, Minneapolis, Minn.), TPO (1 ng/mL, R&D Systems), stem cell factor (SCF, 10 ng/mL, R&D Systems), FLT-3 ligand (FLT3, 50 ng/mL, R&D Systems), granulocyte-macrophage colony stimulating factor (GM-CSF, 50 ng/mL, Biogenesis Ltd, Bournemouth, UK) and combinations of the above, for 24 hr to 28 days (supplemented every 4 days). • 2. Endothlial Growth factors: Epidermal growth factor (EGF 10 ng/ml, Sigma Chemical Co.), basic Fibroblast growth factor (bFGF 20 ng/ml, Sigma Chemical Co.) incubated in a serum free medium (SFM) for 48 hr. • 3. […] AChE C-terminal peptides: The following C-terminal peptides of the AChE synaptic (ASP, also denoted SEQ ID: No. 2) and readthrough (ARP, also denoted SEQ ID: No. 1) isoforms were synthesized using a 433A peptide synthesizer (PE Applied Biosystems, Inc., Norwalk, Conn.). • ASP: 1-[…]-40, also denoted as SEQ ID: No. 2. • ARP: 1-[…]-26, also denoted as SEQ ID: No. 1. […]

Assay [2] has as its system CD34^+ cells. The experiment in a line: Cell phenotyping of CD34+ liquid cultures by flow cytometry (CD34, CD33, CD15, CD41). The note with it: day 14; seeded at 50,000 cells/well; ARP 2 nM, cortisol 1.2 μM, ASP 2 nM, SCF 50 ng/ml, AS1 20 pM, PBAN 2 nM. The text has this:
Cell Source: UCB was collected, following informed consent of the parents and with the approval of the Sourasky Medical Center Ethics Committee, as previously described [Grisaru et al. (1999a) Am. J. Obstet. Gynecol, 180, 1240–1243]. Following 1:1 (v/v) dilution in Iscove's modified Dulbecco medium (IMDM, Beit Haemek, Israel), mononuclear cells were separated using 3% gelatin (Difco, Detroit, Mich.) and Ficoll-Hypaque gradients (<1.077 g/ml; Pharmacia, Uppsala, Sweden) [Pick et al. (1998) Br. J. Haematol. 103, 639–50]. CD34^+ cells were enriched using CD34 immunoglobulin-coated magnetic beads (CD34 progenitor cell selection system, Dynal, Norway).CD34^+ cells analysis was performed by flow cytometry (Becton Dickinson Immunocytochemistry System Inc., San Jose, Calif.), using CD34-PE (Becton Dickinson Immunocytometry System, Inc.) and CD45-FITC (Dako, Glostrup, Denmark) monoclonal antibodies. […] Liquid Cultures: UCB CD34^+ cells were set for liquid cultures at a concentration of 10^5/mL in IMDM, containing 10% autologous plasma, 2 mM L-glutamine (Sigma Chemical Co., St Louis, Mo.), penicillin ([…]), streptomycin ([…]), amphotericin B (2×10^−5 M) (Sigma Chemical Co.), and heparin (20 IU/mL, Gibco, Grand Island, N.Y.), all in a fully humidified atmosphere at 37° C. and 5% CO2. The following elements were added where noted: • 1. […] Endothlial Growth factors: Epidermal growth factor (EGF 10 ng/ml, Sigma Chemical Co.), basic Fibroblast growth factor (bFGF 20 ng/ml, Sigma Chemical Co.) incubated in a serum free medium (SFM) for 48 hr. • 3. Stress mimicking conditions: Hydrocortisone sodium succinate (Abic Ltd., Netanya, Israel) at concentrations equivalent to normal, intermediate and stress serum cortisol levels (0.1, 0.6 and 1.2 μM, respectively (De Vroede et al., Arch. Des. […] Antisense oligonucleotides: 3′-terminal 2′-O-Methylated 15- and 20-mer oligodeoxynucleotides in the antisense (AS) orientation, targeted against the common sequence domain in human AChEmRNA and BuChE mRNA, as control, […], as detailed elsewhere [Grisaru et al. (1999b) Mol. Cell. Biol. 19, 788–95]. • 5. AChE C-terminal peptides: The following C-terminal peptides of the AChE synaptic (ASP, also denoted SEQ ID: No. 2) and readthrough (ARP, also denoted SEQ ID: No. 1) isoforms were synthesized using a 433A peptide synthesizer (PE Applied Biosystems, Inc., Norwalk, Conn.). • ASP: 1-[…]-40, also denoted as SEQ ID: No. 2. • ARP: 1-[…]-26, also denoted as SEQ ID: No. 1.
(§1) Culture Analyses: Twenty-four hr liquid cultures served for cytochemical staining, in situ hybridization, and cell proliferation assay by 5-bromo-2′-deoxy-Uridine (BrdU) incorporation [Grisaru et al. (1999b) id ibid.]. Twenty-eight day liquid cultures were sampled every 6–8 days for viable cell counting (using trypan blue dye exclusion), cell phenotyping (CD34^+, CD33^+ and CD41^+ quantification using flow cytometry, with CD34-PE, CD33-FITC (Immunotech/Coulter, Hialeah, Fla.), CD41-FITC (Immunoquality Products, Groningen, Netherlands) and CD45-FITC monoclonal antibodies), and growth of progenitor colony (granulocyte-macrophage and megakaryocytic), using previously described techniques (Pick et al. (1998) id ibid.). […] 11, 1049–57]. Nuclear staining w with 4′,6-diamidino-2- phenylindole [DAPI, see e.g., Peterson et al. (1999) Genetics 152, 427–439].

The test system of assay [3] is AChEmRNA transcripts (S, E, R). The experiment in a line: In situ hybridization of AChEmRNA transcripts in cultured CD34+ cells, confocal quantification. The note with it: 24 hr.
Procedure: In Situ Hybridization: In situ hybridization procedures, were performed on cultured cells and human fetal tissues, as detailed elsewhere [Grisaru et al. (1999b) id ibid; Kaufer et al. (1998) id ibid.]. Cultured cells were centrifuged at 300× g and fixed, using 4% paraformaldehyde, to collagen-coated cover slips placed on the bottom of the culture well. […] 5′-Biotinylated, 2′-O-methylated AChEcRNA probes complementary to 3′-alternative human ACHE exons were employed. Detection and quantification of the various AChEmRNA transcripts in fetal tissues were performed as previously described [Grisaru et al. (1999b) id ibid.]. Confocal microscopy scans of the culture-derived cells were obtained using a MRC-1024 Bio-Rad confocal microscope (Hemel Hempsted Herts., UK). A projection was built from each cell image and specific criteria were set for size and intensity of the Fagt Red fluorescence. […]
The assumption that hematopoietic ACHE gene expression is modulated under stress was tested in CD34^+ cells cultured for 24 hr with increasing doses of hydrocortisone. Treated cells were subjected to cytochemical staining for AChE activity as well as to high resolution in situ hybridization followed by confocal microscopic quantification of labeling density. […] Because each cRNA probe has its own characteristic hybridization affinity, each transcript was quantified separately. […]
The test system of assay [4] is AChE. The experiment in a line: Cytochemical staining of AChE catalytic activity in CD34+ cells. The note with it: 24 hr.
From the text: as §1

The mark [5] stands for this setting: 1.2 μM hydrocortisone (stress-associated level).

Consider `C[C@]12CCC(=O)C=C1CC[C@@H]1[C@@H]2[C@@H](O)C[C@@]2(C)[C@H]1CC[C@]2(O)C(=O)COC(=O)CCC(=O)[O-].[Na+]` [hydrocortisone, Hydrocortisone sodium succinate, reference compound], for which the Total viable cells in assay [1] is 80.0 cells per culture × 10^−3. In addition, in assay [2], the “CD33^+ (early myeloids)” value is 45.0 cells per culture × 10^−3; the “CD33^+ and CD15^+ (total myeloids)” value is reported as 73.0 cells per culture × 10^−3; the “CD34^+ (early progenitors)” value is on record as 13.0 cells per culture × 10^−3; the “CD41^+ (megakaryocytes)” value is 10.1^b cells per culture × 10^−3. In addition, in assay [3] (0.60 μM hydrocortisone, above level at 0.10 μM, CD34+ cells), the “selective increase in "readthrough" AChE-R mRNA transcript” value came out at 40%. For the same molecule, the “labeling of all 3 AChEmRNA transcripts” value in assay [3] (setting [5]) was “enhanced”. In addition, the “enzyme activity of CD34+ cells” value in assay [4] (0.60 μM hydrocortisone) is “no change”. Besides, in assay [4] (setting [5]), the “catalytic activity of the stem cell-associated enzyme” value was “intensified”.
